From US6046207A, “Benzopyranopyrrole and benzopyranopyridine α-1 adrenergic compounds” (priority 1997, dated 2000)
Like-named read-outs stand apart in the source and are kept apart here.

Assays:
[1] = target: T1, α-1b (hamster) adrenoreceptor (Mesocricetus auratus, UniProt P18841); assay: biochemical; details: read-out: Radioligand Binding Ki, 1b (Hamster)
T1 sequence (P18841 1-515): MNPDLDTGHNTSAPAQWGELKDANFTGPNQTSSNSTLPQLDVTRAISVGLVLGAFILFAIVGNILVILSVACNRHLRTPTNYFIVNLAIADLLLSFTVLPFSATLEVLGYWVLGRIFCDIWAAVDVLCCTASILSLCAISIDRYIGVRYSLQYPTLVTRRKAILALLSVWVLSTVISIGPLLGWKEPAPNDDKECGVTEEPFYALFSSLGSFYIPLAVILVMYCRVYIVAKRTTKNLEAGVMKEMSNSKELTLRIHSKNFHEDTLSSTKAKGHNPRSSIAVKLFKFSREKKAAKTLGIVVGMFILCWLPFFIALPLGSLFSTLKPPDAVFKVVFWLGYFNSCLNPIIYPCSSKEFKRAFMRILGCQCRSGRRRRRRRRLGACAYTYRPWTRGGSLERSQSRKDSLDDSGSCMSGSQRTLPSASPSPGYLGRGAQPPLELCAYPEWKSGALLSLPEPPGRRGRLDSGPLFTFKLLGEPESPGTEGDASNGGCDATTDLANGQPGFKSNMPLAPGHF
Protocol: (§1) In the following, for purposes of discussing alpha-1 adrenoreceptor subtypes, the IUPHAR convention of using lower case letters to define molecular clones and upper case letters to indicate pharmacologically defined adrenoreceptors has been followed. Moreover, the newly recommended nomenclature for alpha-1 (α1a, α1b, α1d) has been used.
(§2) Additionally, binding affinity against the pharmacologically defined α-1A adrenoreceptor (rat submaxillary gland) was measured.
(§3) The cDNA clones encoding the α-1 adrenoreceptors (α-1a, α-1b, and α-1d) were obtained from TULCO (Triangle Universities Licensing Consortium, Research Triangle Park, NC) and inserted into the eukaryotic expression vector SnaB30. In this vector, expression of the adrenoreceptor gene is under the transcriptional control of an SV40 early promoter. Positive drug selection is provided by a neomycin-resistance gene. Mouse fibroblast cells (LTK) were transfected with the α1 expression plasmids and grown in Dulbecco's modified Eagle's medium (DMEM) containing 10% fetal calf serum and 30 μM G418. Stable G418-resistant parental lines were generated, with successful expression of adrenoreceptor protein monitored using radioligand binding techniques. Stable single cell clones derived from the parental lines were screened in adrenoreceptor binding assays to identify clones having high adrenoreceptor density. […]

α-1 adrenoreceptors = details: cited from earlier work; for urinary flow rates and subjective symptom scores, longer term studies: BPH patients
[2] = target: T2, α-1B adrenoreceptor (rat spleen) (Rattus norvegicus, UniProt P15823); assay: Functional antagonism: inhibition of phenylephrine-induced contraction of rat spleen; parameters: species or system tissue; details: for more potent effect on spleen smooth muscle: rat spleen versus the other tissues, in words
T2 construct: contraction of rat spleen; from tissue; host or cells: rat spleen
T2 sequence (P15823 1-515): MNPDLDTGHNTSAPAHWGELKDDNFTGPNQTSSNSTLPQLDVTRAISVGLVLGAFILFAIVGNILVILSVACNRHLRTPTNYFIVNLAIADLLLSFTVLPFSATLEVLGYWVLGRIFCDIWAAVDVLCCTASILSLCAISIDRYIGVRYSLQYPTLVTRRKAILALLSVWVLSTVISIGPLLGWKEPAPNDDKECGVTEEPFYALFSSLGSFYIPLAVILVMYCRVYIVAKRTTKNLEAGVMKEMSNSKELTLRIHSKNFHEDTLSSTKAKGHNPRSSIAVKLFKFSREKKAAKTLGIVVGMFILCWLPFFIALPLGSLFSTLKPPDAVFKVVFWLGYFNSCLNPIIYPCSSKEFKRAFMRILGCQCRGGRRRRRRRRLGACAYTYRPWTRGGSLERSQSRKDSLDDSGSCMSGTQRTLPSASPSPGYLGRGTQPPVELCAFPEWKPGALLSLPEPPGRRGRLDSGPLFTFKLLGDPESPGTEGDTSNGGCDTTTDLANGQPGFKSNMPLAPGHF
Excerpt: (§4) Functional assays indicative of pharmacologically defined α-1 adrenoreceptors were used to further characterize compounds. […] For each of these models, agonist dose response curves were repeated against increasing concentrations of test agent to derive a Schild plot [log ([…]) against log (molarity of test agent)] to determine the pA2.

[3] = target: T3, α-1A adrenoreceptor (rat vas deferens) (Rattus norvegicus, UniProt P43140); assay: Functional antagonism: inhibition of phenylephrine-induced contraction of rat vas deferens; parameters: species or system tissue; details: Schild
T3 construct: contraction of rat vas deferens; from tissue; host or cells: rat vas deferens
T3 sequence (P43140 1-466): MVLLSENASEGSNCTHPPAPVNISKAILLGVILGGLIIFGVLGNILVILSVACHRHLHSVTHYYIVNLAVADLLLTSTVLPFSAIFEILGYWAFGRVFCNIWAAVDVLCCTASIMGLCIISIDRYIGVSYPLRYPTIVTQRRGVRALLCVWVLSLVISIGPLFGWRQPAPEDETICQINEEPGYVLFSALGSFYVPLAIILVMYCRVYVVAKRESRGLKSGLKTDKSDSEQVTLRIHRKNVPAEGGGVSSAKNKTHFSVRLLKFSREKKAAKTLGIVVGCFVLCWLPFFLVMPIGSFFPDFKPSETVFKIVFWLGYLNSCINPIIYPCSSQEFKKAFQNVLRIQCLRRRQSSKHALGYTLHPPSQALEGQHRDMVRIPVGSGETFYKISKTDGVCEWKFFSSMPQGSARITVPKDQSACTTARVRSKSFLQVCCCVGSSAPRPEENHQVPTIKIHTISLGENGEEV
Excerpt: as §4

[4] = target: T4, α-1A adrenoreceptor (rat submaxillary gland) (Rattus norvegicus, UniProt P43140); assay: Radioligand binding, [3H]-prazosin displacement, α-1A (rat submaxillary gland); details: [3H]prazosin 0.2 nM
T4 construct: Rat submaxillary glands were used for α-1A adrenoreceptors; from tissue; host or cells: rat submaxillary gland membranes
T4 sequence (P43140 1-466): T3 sequence (P43140 1-466)
Protocol: as §1, §2
Cells were detached from the roller bottles by incubating for 15 minutes at 37° C. in a Tris-EDTA solution (10 mM Tris, 100 mM NaCl, 1 mM EDTA, pH=7.4). The cell suspension from each roller bottle was decanted into tared centrifuge tubes and kept on ice. An aliquot of each cell suspension was generally taken for cell counting. […] The supernatant was decanted and the pellet weighed to determine the wet weight of cells. Cells were washed a final time in 40 vol 5 mM Tris-HCl, 5 mM EDTA, pH=7.7, and centrifuged at 40,000×G for 10 minutes. Cells were homogenized in 10 mL of 50 mM Tris-HCl, 5 mM EDTA (pH=7.4) and diluted to 40 mL/tube. Homogenates were centrifuged at 40,000×G for 10 minutes. […]
Receptor binding assays for α-1 adrenoreceptors were performed essentially as described by Greengrass and Bremner (Eur. J. Pharmacol. 55: 323-326 (1979)). […] Radioactivity was determined by standard liquid scintillation techniques.

[5] = target: T5, α-1a (bovine) adrenoreceptor (Bos taurus, UniProt P18130); assay: Radioligand binding, [3H]-prazosin displacement, cloned α-1a expressed in LTK cells; details: cloned bovine α-1a, LTK cell membranes, [3H]prazosin 0.2 nM
T5 construct: expressed in transfected cells; host or cells: mouse fibroblast LTK cells, vector SnaB30, cDNA from TULCO
T5 sequence (P18130 1-466): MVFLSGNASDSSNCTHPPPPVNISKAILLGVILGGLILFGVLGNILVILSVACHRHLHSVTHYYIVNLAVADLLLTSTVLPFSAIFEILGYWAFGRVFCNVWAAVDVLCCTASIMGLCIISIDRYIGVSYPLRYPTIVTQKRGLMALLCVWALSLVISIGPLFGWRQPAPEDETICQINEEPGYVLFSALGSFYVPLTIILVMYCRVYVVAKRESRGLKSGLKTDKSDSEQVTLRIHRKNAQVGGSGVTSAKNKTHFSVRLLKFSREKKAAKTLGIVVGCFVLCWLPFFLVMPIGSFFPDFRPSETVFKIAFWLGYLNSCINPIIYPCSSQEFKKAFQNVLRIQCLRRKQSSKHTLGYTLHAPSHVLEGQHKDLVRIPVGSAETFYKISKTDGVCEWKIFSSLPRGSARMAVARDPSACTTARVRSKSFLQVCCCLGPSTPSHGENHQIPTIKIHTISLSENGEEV
Protocol: as §1, §2, §3

In the case of `COc1ccc2c(c1)[C@@H]1CN(CCCn3c(=O)[nH]c4c(sc5ncccc54)c3=O)C[C@@H]1CO2` (racemic) [Example 77, 3-[3-((±)-cis-8-Methoxy-1,2,3,3a,4,9b-hexahydro-[1]-benzopyrano[3,4-c]pyrrol-2-yl)propyl]-pyrido[3',2':4,5]thieno[3,2-d]pyrimidine-2,4(1H,3H)-dione], the Ki [1] is reported as 10000 nM.

In the case of `COc1cc2nc(N3CCN(C(=O)c4ccco4)CC3)nc(N)c2cc1OC` [Prazosin, prazosin], the “urinary flow rates and subjective symptom scores, longer term studies” value (α-1 adrenoreceptors) is listed as “significant improvements in urinary flow rates and subjective symptom scores”, the “urinary incontinence during antihypertensive treatment” value (α-1 adrenoreceptors; women, antihypertensive treatment) is listed as “urinary incontinence developed in women” and the “more potent effect on spleen smooth muscle” value (from here on “more potent effect”) [2] is listed as “a more potent effect on spleen smooth muscle by approximately an order of magnitude”.

In the case of `COc1cc2nc(N3CCN(C(=O)C4COc5ccccc5O4)CC3)nc(N)c2cc1OC` (centres unmarked) [Doxazosin, doxazosin], the “urinary flow rates and subjective symptom scores, longer term studies” value (α-1 adrenoreceptors) is listed as “significant improvements in urinary flow rates and subjective symptom scores” and the “more potent effect” value [2] is listed as “a more potent effect on spleen smooth muscle by approximately an order of magnitude”.

In the case of `COc1cc2nc(N3CCN(C(=O)C4CCCO4)CC3)nc(N)c2cc1OC` (centres unmarked) [Terazosin, terazosin], the “urinary flow rates and subjective symptom scores, longer term studies” value (α-1 adrenoreceptors) is listed as “significant improvements in urinary flow rates and subjective symptom scores” and the “more potent effect” value [2] is listed as “a more potent effect on spleen smooth muscle by approximately an order of magnitude”.

In the case of `COc1cccc2c1[C@@H]1CN(CCCCn3c(=O)[nH]c4c(sc5nc(Cl)ccc54)c3=O)C[C@@H]1CO2` [Example 32, 3-[4-((3aR,9bR)-cis-9-Methoxy-1,2,3,3a,4,9b-hexahydro-[1]-benzopyrano[3,4-c]pyrrol-2-yl)butyl]-7-chloro-pyrido[3',2':4,5]thieno[3,2-d]pyrimidine-2,4(1H,3H)-dione], the “In Vitro Characterization (pA2), Rat Vas” value [3] is reported as 9.46, the Ki [4] is reported as 1.01 nM and the Ki [5] is reported as 0.093 nM. The “In Vitro Characterization (pA2), Rat Spleen” value ([2]; rat spleen, phenylephrine, Schild) was 7.24 and the Ki ([1]; cloned hamster α-1b, LTK cell membranes, [3H]prazosin 0.2 nM) was 9.95 nM.

In the case of `O=C(NC1CCN(CCc2c[nH]c3ccccc23)CC1)c1ccccc1` [indoramin], the “urinary flow rates and subjective symptom scores, longer term studies” value (α-1 adrenoreceptors) is listed as “significant improvements in urinary flow rates and subjective symptom scores”.
